Literature values in US20040265344A1, “Aloe suppositories” (priority 2003, published 2004).

Tests used:
[1] = system: rat colonic mucosa sodium and potassium adenosine triphosphatase (ATP-ase); conditions: in vitro

For O=C1c2c(O)cccc2Cc2cc(CO)cc(O)c21 [Aloe-emodin-9-anthrone], the “effect on rat colonic mucosa sodium and potassium ATP-ase” value [1] is listed as “inhibited”.
For CN(C)C(=O)C(CCN1CCC(O)(c2ccc(Cl)cc2)CC1)(c1ccccc1)c1ccccc1 [loperamide], the “effect on the rise in residual fluid volume” value (residual fluid volume) is listed as “did not completely inhibit”.
